Source: the NIST ThermoML archive (doi:10.1016/j.jct.2008.12.005)
Numbers after ± are expanded uncertainties.

Assay: activity coefficient (dimensionless); of the first substance listed, at infinite dilution; xn = mol fraction of the nth substance listed
Details: 101 kPa, Liquid, Chromatography, x1 = 0

Row | Structure (SMILES) | activity coefficient (298.15 K) | activity coefficient (308.15 K) | activity coefficient (318.15 K) | activity coefficient (328.15 K) | activity coefficient (338.15 K) | activity coefficient (348.15 K) | activity coefficient (358.15 K) | activity coefficient (368.15 K)
1 | C1CCCC1 [cyclopentane] + CC[S+](CC)CC.O=S(=O)([N-]S(=O)(=O)C(F)(F)F)C(F)(F)F | 10.8 ± 0.7 | 10.1 ± 0.7 | 9.31 ± 0.64 | 8.72 ± 0.59 | 8.17 ± 0.56 | 7.7 ± 0.53 | 7.29 ± 0.5 | 6.94 ± 0.47
2 | c1ccsc1 [thiophene] + CC[S+](CC)CC.O=S(=O)([N-]S(=O)(=O)C(F)(F)F)C(F)(F)F | 0.926 ± 0.059 | 0.935 ± 0.059 | 0.943 ± 0.059 | 0.951 ± 0.06 | 0.958 ± 0.06 | 0.965 ± 0.061 | 0.971 ± 0.061 | 0.977 ± 0.061
3 | C1CCOC1 [tetrahydrofuran] + CC[S+](CC)CC.O=S(=O)([N-]S(=O)(=O)C(F)(F)F)C(F)(F)F | 0.788 ± 0.051 | 0.803 ± 0.052 | 0.82 ± 0.053 | 0.834 ± 0.054 | 0.846 ± 0.054 | 0.859 ± 0.055 | 0.872 ± 0.056 | 0.885 ± 0.056
4 | CCCCCCCC [octane] + CC[S+](CC)CC.O=S(=O)([N-]S(=O)(=O)C(F)(F)F)C(F)(F)F | 59.6 ± 4.1 | 53.3 ± 3.7 | 47.9 ± 3.3 | 43.6 ± 3 | 39.6 ± 2.7 | 36.3 ± 2.5 | 33.5 ± 2.3 | 30.8 ± 2.1
5 | C#CCCCCCC [1-octyne] + CC[S+](CC)CC.O=S(=O)([N-]S(=O)(=O)C(F)(F)F)C(F)(F)F | 7.87 ± 0.54 | 7.68 ± 0.52 | 7.51 ± 0.51 | 7.35 ± 0.5 | 7.2 ± 0.49 | 7.06 ± 0.48 | 6.93 ± 0.47 | 6.81 ± 0.46
6 | CCCCC [pentane] + CC[S+](CC)CC.O=S(=O)([N-]S(=O)(=O)C(F)(F)F)C(F)(F)F | 21.6 ± 1.5 | 19.9 ± 1.4 | 18.3 ± 1.3 | 16.8 ± 1.1 | 15.6 ± 1.1 | 14.6 ± 1 | 13.5 ± 0.9 | 12.7 ± 0.9
7 | CO [methanol] + CC[S+](CC)CC.O=S(=O)([N-]S(=O)(=O)C(F)(F)F)C(F)(F)F | 1.62 ± 0.11 | 1.48 ± 0.1 | 1.35 ± 0.09 | 1.25 ± 0.08 | 1.15 ± 0.07 | 1.07 ± 0.07 | 1 ± 0.06 | 0.935 ± 0.059
8 | C1CCCCCCC1 [cyclooctane] + CC[S+](CC)CC.O=S(=O)([N-]S(=O)(=O)C(F)(F)F)C(F)(F)F | 30.3 ± 2.1 | 27.2 ± 1.9 | 24.5 ± 1.7 | 22.4 ± 1.5 | 20.4 ± 1.4 | 18.7 ± 1.3 | 17.2 ± 1.2 | 16 ± 1.1
9 | COC(C)(C)C [2-methoxy-2-methylpropane] + CC[S+](CC)CC.O=S(=O)([N-]S(=O)(=O)C(F)(F)F)C(F)(F)F | 2.92 ± 0.2 | 2.94 ± 0.2 | 2.96 ± 0.2 | 2.98 ± 0.2 | 3 ± 0.2 | 3.02 ± 0.21 | 3.03 ± 0.21 | 3.05 ± 0.21
10 | CCCCCC [hexane] + CC[S+](CC)CC.O=S(=O)([N-]S(=O)(=O)C(F)(F)F)C(F)(F)F | 28.6 ± 2 | 26.2 ± 1.8 | 24 ± 1.6 | 22.1 ± 1.5 | 20.7 ± 1.4 | 19.2 ± 1.3 | 18 ± 1.2 | 16.9 ± 1.2
11 | c1ccccc1 [benzene] + CC[S+](CC)CC.O=S(=O)([N-]S(=O)(=O)C(F)(F)F)C(F)(F)F | 1.08 ± 0.07 | 1.1 ± 0.07 | 1.11 ± 0.07 | 1.12 ± 0.07 | 1.13 ± 0.07 | 1.13 ± 0.07 | 1.14 ± 0.07 | 1.15 ± 0.07
12 | CCO [ethanol] + CC[S+](CC)CC.O=S(=O)([N-]S(=O)(=O)C(F)(F)F)C(F)(F)F | 2.15 ± 0.15 | 1.95 ± 0.13 | 1.77 ± 0.12 | 1.61 ± 0.11 | 1.48 ± 0.1 | 1.36 ± 0.09 | 1.27 ± 0.08 | 1.18 ± 0.08
13 | C#CCCCCC [1-heptyne] + CC[S+](CC)CC.O=S(=O)([N-]S(=O)(=O)C(F)(F)F)C(F)(F)F | 5.34 ± 0.36 | 5.28 ± 0.36 | 5.21 ± 0.36 | 5.14 ± 0.35 | 5.08 ± 0.35 | 5.04 ± 0.34 | 4.98 ± 0.34 | 4.93 ± 0.34
14 | Cc1ccccc1 [toluene] + CC[S+](CC)CC.O=S(=O)([N-]S(=O)(=O)C(F)(F)F)C(F)(F)F | 1.54 ± 0.1 | 1.56 ± 0.1 | 1.58 ± 0.1 | 1.6 ± 0.11 | 1.62 ± 0.11 | 1.63 ± 0.11 | 1.65 ± 0.11 | 1.66 ± 0.11
15 | C#CCCCC [1-hexyne] + CC[S+](CC)CC.O=S(=O)([N-]S(=O)(=O)C(F)(F)F)C(F)(F)F | 3.63 ± 0.25 | 3.62 ± 0.25 | 3.6 ± 0.25 | 3.58 ± 0.24 | 3.57 ± 0.24 | 3.56 ± 0.24 | 3.54 ± 0.24 | 3.53 ± 0.24
16 | O [water] + CC[S+](CC)CC.O=S(=O)([N-]S(=O)(=O)C(F)(F)F)C(F)(F)F | – | 3.91 ± 0.27 | 3.39 ± 0.23 | 2.97 ± 0.2 | 2.63 ± 0.18 | 2.33 ± 0.16 | 2.08 ± 0.14 | 1.88 ± 0.13
17 | C1CCCCC1 [cyclohexane] + CC[S+](CC)CC.O=S(=O)([N-]S(=O)(=O)C(F)(F)F)C(F)(F)F | 16.1 ± 1.1 | 14.7 ± 1 | 13.5 ± 0.9 | 12.4 ± 0.8 | 11.6 ± 0.8 | 10.7 ± 0.7 | 10 ± 0.7 | 9.43 ± 0.64
18 | C=CCCCCC [1-heptene] + CC[S+](CC)CC.O=S(=O)([N-]S(=O)(=O)C(F)(F)F)C(F)(F)F | 18.3 ± 1.3 | 17.2 ± 1.2 | 16.1 ± 1.1 | 15.2 ± 1 | 14.4 ± 1 | 13.7 ± 0.9 | 12.9 ± 0.9 | 12.4 ± 0.8
19 | CCc1ccccc1 [ethylbenzene] + CC[S+](CC)CC.O=S(=O)([N-]S(=O)(=O)C(F)(F)F)C(F)(F)F | 2.42 ± 0.16 | 2.43 ± 0.17 | 2.43 ± 0.17 | 2.44 ± 0.17 | 2.44 ± 0.17 | 2.45 ± 0.17 | 2.45 ± 0.17 | 2.45 ± 0.17
20 | CCCO [propan-1-ol] + CC[S+](CC)CC.O=S(=O)([N-]S(=O)(=O)C(F)(F)F)C(F)(F)F | – | 2.49 ± 0.17 | 2.24 ± 0.15 | 2.04 ± 0.14 | 1.85 ± 0.12 | 1.7 ± 0.11 | 1.57 ± 0.1 | 1.46 ± 0.1
